PubChem BioAssay (NCI)
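All cell lines were grown in 96-well plates and treated with compound for 48 hours. Here, GI50 denotes the concentration required for 50% inhibition of growth. TGI marks complete inhibition of growth.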

How the values were obtained:
Assay in all cases: NCI-60 cell line screen, 48 h
SF-539 CNS = tested on: SF-539 CNS
MDA-MB-435 = tested on: MDA-MB-435
HS 578T breast = tested on: HS 578T breast
ACHN renal = tested on: ACHN renal
NCI/ADR-RES ovarian = tested on: NCI/ADR-RES ovarian
HCC-2998 colon = tested on: HCC-2998 colon
MCF7 breast = tested on: MCF7 breast
TK-10 renal = tested on: TK-10 renal
A498 renal = tested on: A498 renal
HOP-18 NSCLC = tested on: HOP-18 NSCLC
DMS 114 small cell lung = tested on: DMS 114 small cell lung

With `N=C(N)c1ccc(-c2ccc(-c3ccccc3)s2)cc1` the GI50 (SF-539 CNS) was 1.63 µM, the TGI (SF-539 CNS) was 3 µM and the GI50 (MDA-MB-435) was 1.66 µM. For the same compound, the TGI (MDA-MB-435) was 3.03 µM, the GI50 (HS 578T breast) was 1.94 µM and the TGI (HS 578T breast) was 5.04 µM. The GI50 (ACHN renal) was 1.67 µM and the TGI (ACHN renal) was 3.03 µM.
Compound `O=[N+]([O-])c1ccccc1NC1c2ccccc2Oc2ccccc21` has a GI50 (SF-539 CNS) of 3.27 µM, a TGI (SF-539 CNS) greater than 100 µM and a GI50 (NCI/ADR-RES ovarian) of 4.03 µM. The TGI (NCI/ADR-RES ovarian) was greater than 100 µM, the GI50 (HCC-2998 colon) was 75.2 µM and the TGI (HCC-2998 colon) was greater than 100 µM. It also gave a GI50 (MDA-MB-435) of 2.5 µM, a TGI (MDA-MB-435) of 6.64 µM and a GI50 (HS 578T breast) of 8.35 µM. The TGI (HS 578T breast) was greater than 100 µM, the GI50 (MCF7 breast) was 4.13 µM and the TGI (MCF7 breast) was greater than 100 µM. For the same compound, the GI50 (TK-10 renal) was 29.1 µM, the TGI (TK-10 renal) was greater than 100 µM and the GI50 (ACHN renal) was 5.93 µM. For the same compound, the TGI (ACHN renal) was greater than 100 µM, the GI50 (A498 renal) was 5.82 µM and the TGI (A498 renal) was greater than 100 µM.
`C=C1C(=O)OC2/C=C(/C)C3CC(O)C(C)(CC(OC(=O)/C(C)=C/C)C12)O3` (stereo unspecified) showed a TGI (SF-539 CNS) of 4.86 µM, a TGI (HCC-2998 colon) of 28.4 µM and a TGI (HOP-18 NSCLC) of 31.2 µM. The TGI (TK-10 renal) was 20.1 µM, the TGI (ACHN renal) was 6.71 µM and the TGI (DMS 114 small cell lung) was 19.8 µM. The TGI (A498 renal) was 23.2 µM.
Work on `O=C1C=CC2=[N+]([O-])C(c3ccccc3)(c3ccccc3)C(=Nc3ccccc3)C2=C1` yielded a TGI (SF-539 CNS) of 19.5 µM, a TGI (HCC-2998 colon) of 19.6 µM and a TGI (HOP-18 NSCLC) of 7.52 µM. For the same compound, the TGI (TK-10 renal) was 3.27 µM, the TGI (ACHN renal) was 3.36 µM and the TGI (DMS 114 small cell lung) was 3.32 µM.
For `COc1cc(/C=C/c2cc(/C=C/c3ccc(O)c(OC)c3)nc(N)n2)ccc1O`, the GI50 (SF-539 CNS) was 2.05 µM, the TGI (SF-539 CNS) was 5.73 µM and the GI50 (NCI/ADR-RES ovarian) was 2.88 µM. The TGI (NCI/ADR-RES ovarian) was 18.8 µM, the GI50 (HCC-2998 colon) was 1.75 µM and the TGI (HCC-2998 colon) was 3.19 µM. It also gave a GI50 (HS 578T breast) of 0.524 µM, a TGI (HS 578T breast) of 2.99 µM and a GI50 (MCF7 breast) of 1.81 µM. The TGI (MCF7 breast) was 6.33 µM, the GI50 (TK-10 renal) was 3.39 µM and the TGI (TK-10 renal) was 9.54 µM. The GI50 (ACHN renal) was 2.54 µM, the TGI (ACHN renal) was 7.88 µM and the GI50 (A498 renal) was 1.51 µM. The TGI (A498 renal) was 3.26 µM.
Work on `CCNc1nnc(-c2nsc3ccccc23)s1` yielded a TGI (SF-539 CNS) greater than 100 µM, a TGI (HCC-2998 colon) greater than 100 µM and a TGI (HOP-18 NSCLC) of 91.6 µM. The TGI (TK-10 renal) was greater than 100 µM and the TGI (ACHN renal) was greater than 100 µM.
For `Cc1ccc([N+](=O)[O-])cc1S(=O)(=O)Nc1ccc(C2=NNC(c3ccccc3O)C2)cc1` (stereo unspecified), the TGI (SF-539 CNS) was greater than 100 µM, the TGI (NCI/ADR-RES ovarian) was 81 µM and the TGI (HCC-2998 colon) was greater than 100 µM. For the same compound, the TGI (MDA-MB-435) was 50.6 µM, the TGI (HS 578T breast) was greater than 100 µM and the TGI (MCF7 breast) was 64.7 µM. For the same compound, the TGI (TK-10 renal) was greater than 100 µM, the TGI (ACHN renal) was 77 µM and the TGI (A498 renal) was 79.3 µM.
Compound `CN1CCCCC(C#N)(c2ccccc2)CC1` (stereo unspecified) has a TGI (NCI/ADR-RES ovarian) greater than 100 µM, a TGI (HCC-2998 colon) greater than 100 µM and a TGI (HS 578T breast) greater than 100 µM. For the same compound, the TGI (MCF7 breast) was greater than 100 µM, the TGI (TK-10 renal) was greater than 100 µM and the TGI (ACHN renal) was greater than 100 µM. The TGI (A498 renal) was greater than 100 µM.
`C=C1C(=O)C[C@@]23CCC[C@@]12CC(OCOC)C3` (stereo partly specified) was tested, and the TGI (SF-539 CNS) was 9.5 µM, the TGI (NCI/ADR-RES ovarian) was 9.5 µM and the TGI (HCC-2998 colon) was 12.3 µM. For the same compound, the TGI (HOP-18 NSCLC) was 11.5 µM, the TGI (MCF7 breast) was 3.74 µM and the TGI (DMS 114 small cell lung) was 5.13 µM. For the same compound, the TGI (A498 renal) was 18.4 µM.
For `Nc1nc(Cl)cc(OCC2(CO)CC(OCc3ccccc3)C2)n1` (stereo unspecified), the GI50 (NCI/ADR-RES ovarian) was 45.8 µM, the GI50 (MDA-MB-435) was 69.4 µM and the GI50 (HS 578T breast) was 34 µM. The GI50 (MCF7 breast) was 46.2 µM, the GI50 (ACHN renal) was 41.5 µM and the GI50 (A498 renal) was 58.3 µM.
Work on `CC(C)CCC[C@@H](C)C1CCC2[C@@H]3CC=C4C[C@@H](C(=O)NCC[N+](C)(C)CCCS(=O)(=O)[O-])CC[C@]4(C)C3CC[C@@]21C` (stereo partly specified) yielded a TGI (SF-539 CNS) of 36.6 µM, a TGI (HCC-2998 colon) of 35.2 µM and a TGI (HOP-18 NSCLC) of 35.8 µM. The TGI (ACHN renal) was 32.5 µM and the TGI (DMS 114 small cell lung) was 35.7 µM.
For `COC(=O)c1cccc(N[C@@H]2c3cc4c(cc3C(c3cc(OC)c(O)c(OC)c3)[C@H]3C(=O)OCC32)OCO4)c1` (stereo partly specified), the TGI (SF-539 CNS) was 3.64 µM, the TGI (NCI/ADR-RES ovarian) was greater than 85.1 µM and the TGI (HCC-2998 colon) was 8.09 µM. For the same compound, the TGI (HOP-18 NSCLC) was 21.6 µM, the TGI (MCF7 breast) was greater than 67.7 µM and the TGI (DMS 114 small cell lung) was 4.3 µM. It also gave a TGI (A498 renal) of 3.46 µM.
With `CC(=O)Oc1ccc2c(c1)oc1c3ccc(OC(C)=O)cc3n(C)c(=O)c21` the TGI (SF-539 CNS) was greater than 100 µM, the TGI (NCI/ADR-RES ovarian) was 51.7 µM and the TGI (HCC-2998 colon) was 57.1 µM. The TGI (MDA-MB-435) was greater than 100 µM, the TGI (HS 578T breast) was greater than 100 µM and the TGI (MCF7 breast) was greater than 100 µM. It also gave a TGI (TK-10 renal) greater than 100 µM and a TGI (ACHN renal) greater than 100 µM.
`CCN(CC)CCCNc1ncc(C)c2[nH]c3ccncc3c12` was tested, and the TGI (SF-539 CNS) was 20.9 µM, the TGI (NCI/ADR-RES ovarian) was greater than 100 µM and the TGI (HCC-2998 colon) was 23.6 µM. For the same compound, the TGI (MCF7 breast) was 17.4 µM, the TGI (DMS 114 small cell lung) was 24.1 µM and the TGI (A498 renal) was 40.4 µM.
Work on `Cc1cc(C)c2c(c1)CC1(Cc3c(C)ccc(C)c3C1=O)C2=O` (stereo unspecified) yielded a TGI (SF-539 CNS) greater than 100 µM, a TGI (NCI/ADR-RES ovarian) greater than 100 µM and a TGI (HCC-2998 colon) greater than 100 µM. The TGI (MDA-MB-435) was greater than 100 µM, the TGI (HS 578T breast) was greater than 100 µM and the TGI (MCF7 breast) was greater than 100 µM. For the same compound, the TGI (TK-10 renal) was greater than 100 µM, the TGI (ACHN renal) was greater than 100 µM and the TGI (A498 renal) was greater than 100 µM.
With `S=P1(N2CCCCC2)Oc2ccc3ccccc3c2-c2c(ccc3ccccc23)O1` the TGI (SF-539 CNS) was greater than 100 µM, the TGI (NCI/ADR-RES ovarian) was greater than 100 µM and the TGI (HCC-2998 colon) was greater than 100 µM. For the same compound, the TGI (HOP-18 NSCLC) was greater than 100 µM, the TGI (MCF7 breast) was greater than 100 µM and the TGI (DMS 114 small cell lung) was greater than 100 µM. The TGI (A498 renal) was greater than 100 µM.
